Literature values as cited in patent US11819781B2, “Device for solid phase extraction and method for use thereof” (Waters Technologies Corporation, priority 2014, dated 2023).

Settings: analyte characteristics; for Log P: octanol:water

Row | pKa | Log P | SMILES
1 | 9.7 | 4.8 | CN(C)CCC=C1c2ccccc2CCc2ccccc21 [Amitriptyline]
2 |  | 1.1 | C[C@H]1C[C@H]2[C@@H]3CCC4=CC(=O)C=C[C@]4(C)[C@@]3(F)[C@@H](O)C[C@]2(C)[C@@]1(O)C(=O)CO [Betamethasone]
3 |  | 4.4 | CNCCCC1c2ccccc2C=Cc2ccccc21 [Protriptyline]
